Measurements taken from patent US11040028B2, “Penicinotam derivative, preparation method and use thereof” (OCEAN UNIVERSITY OF CHINA, priority 2017, dated 2021).

Key:
Format in all cases: cell-based
[1] = tested on: mouse macrophages (RAW264.7); assay: Lipopolysaccharide-induced NO secretion in macrophages (Griess); details: Mus musculus, RAW264.7, 24 h, RAW264.7, LPS 1 μg/ml, a/b isomers given as first/second symbol, read-out: IC50 (μM), inhibition of lipopolysaccharide-induced NO secretion in macrophages
Procedure, shortened: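 RAW264.7 macrophages in DMEM with 10% FBS received test samples at several concentrations and were stimulated with 1 μg/ml LPS for 24 h. NO in the supernatant was measured with the Griess reagent at 548 nm, […].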

NF-κB = assay: Immunological activity test: inhibition of NF-κB activity; details: initial concentration of 30 μM; a/b isomers given as first/second symbol; read-out: IC50 (μM), inhibitory activity against NF-κB
Procedure, shortened: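 NF-κB inhibition was tested at an initial 30 μM compound concentration, with parthenolide as positive control, and IC50 values were determined from follow-up analysis.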

[2] = tested on: cardiac fibroblast RAT-iCell-C002; assay: Anti-fibrosis activity test: inhibition of proliferation of cardiac fibroblast RAT-iCell-C002 (CCK-8); details: Cardiac fibroblast, 48 h
Procedure, shortened: (§1)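 Cells seeded at 2×10^4 cells/mL, adhered 24 h, then exposed to compound concentrations in triplicate for 48 h at 37° C, 5% CO2. CCK-8 added for 2 h, absorbance at 450 nm; inhibition = (1−Ai/Ao)×100% versus blank control, IC50 calculated.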

[3] = tested on: human hepatic stellate cells LX-2; assay: Anti-fibrosis activity test: inhibition of proliferation of human hepatic stellate cells LX-2 (CCK-8); details: Homo sapiens, 48 h
Procedure, shortened: as §1

[4] = tested on: human fibrosarcoma cells HT-1080; assay: Anti-fibrosis activity test: inhibition of proliferation of human fibrosarcoma cells HT-1080 (CCK-8); details: Homo sapiens, HT-1080, 48 h
Procedure, shortened: as §1

[5] = tested on: human dermal fibroblasts CCC-ESF-1; assay: Anti-fibrosis activity test: inhibition of proliferation of human dermal fibroblasts CCC-ESF-1 (CCK-8); details: Fibroblast
Procedure, shortened: as §1

BHK-21 cells = assay: Anti-fibrosis activity test: inhibition of BHK-21 cell proliferation (CCK-8); details: Mesocricetus auratus, BHK-21, 48 h
Procedure, shortened: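 Cells seeded at 2×10^4 cells/mL, allowed to adhere 24 hours, then exposed to graded compound concentrations in triplicate for 48 hours at 37° C, 5% CO2. CCK-8 added for 2 hours, absorbance read at 450 nm; inhibition versus blank control used to derive IC50. Pirfenidone served as positive control.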

[6] = tested on: human lung fibroblasts HFL1; assay: Anti-fibrosis activity test: inhibition of proliferation of human lung fibroblasts HFL1 (CCK-8); details: Homo sapiens, HFL1, 48 h
Procedure, shortened: as §1

[7] = tested on: human embryonic lung fibroblast IMR-90; assay: Anti-fibrosis activity test: inhibition of proliferation of human embryonic lung fibroblast IMR-90 (CCK-8)
Procedure, shortened: as §1

[8] = cardiac fibroblast RAT-iCell-C002, CCK-8, 48 hours
[9] = human hepatic stellate cells LX-2, CCK-8, 48 hours
[10] = human fibrosarcoma cells HT-1080, CCK-8, 48 hours
[11] = human dermal fibroblasts CCC-ESF-1, CCK-8, 48 hours
[12] = CCK-8, 48 hours after administration
[13] = human lung fibroblasts HFL1, CCK-8, 48 hours
[14] = human embryonic lung fibroblast IMR-90, CCK-8, 48 hours
[15] = Homo sapiens, CCC-ESF-1 cells, 48 h, CCK-8
[16] = Homo sapiens, IMR-90 cells, 48 h, CCK-8

Row | Compound | IC50 [1] [µM] | IC50 (NF-κB) [µM] | IC50 [4, 10] [mM] | IC50 ([4]; HT-1080 cells, 48 h, CCK-8) [mM] | IC50 [2, 8] [mM] | IC50 [3, 9] [mM] | IC50 [5, 11] [mM] | IC50 (BHK-21 cells; [12]) [mM] | IC50 [6, 13] [mM] | IC50 [7, 14] [mM] | IC50 ([2]; RAT-iCell-C002 cells, CCK-8) [mM] | IC50 ([3]; LX-2, 48 h, LX-2 cells, CCK-8) [mM] | IC50 [5, 15] [mM] | IC50 (BHK-21 cells; 48 h, CCK-8) [mM] | IC50 ([6]; HFL1 cells, 48 h, CCK-8) [mM] | IC50 [7, 16] [mM]
1 | Cc1cc(C)c2[nH]c3c(c(=O)c2c1)C(=O)n1cccc1-3 [Compound 750a, 5,7-Dimethyl-9H-pyrrolizino[1,2-b]quinoline-9,10(4H)-dione] | 1 to 10 | 1 to 10 | – | 0.05 to 5 | – | – | – | – | – | – | 0.05 to 5 | 0.05 to 5 | 0.05 to 5 | 0.05 to 5 | 0.05 to 5 | 0.05 to 5
2 | N#Cc1ccc(F)cc1Cn1c2c(c(=O)c3ccccc31)C(=O)n1cccc1-2 [Compound 616a, 2-((9,10-Dioxo-9H-pyrrolizino[1,2-b]quinolin-4(10H)-yl)methyl)-4-fluorobenzonitrile] | 10 to 50 | 0.1 to 1 | 0.05 to 5 | – | 0.05 to 5 | 0.05 to 5 | 0.05 to 5 | 0.05 to 5 | 0.05 to 5 | 0.05 to 5 | – | – | – | – | – | –
3 | O=C1c2c(nc3ccccc3c2OCc2ccc([N+](=O)[O-])cc2)-c2cccn21 [Compound 593b, 9-((4-nitrobenzyl)oxy)-10H-pyrrolizino[1,2-b]quinolin-10-one] | 1 to 10 | 1 to 10 | 0.05 to 5 | – | 0.05 to 5 | 0.05 to 5 | 0.05 to 5 | 0.05 to 5 | 0.05 to 5 | 0.05 to 5 | – | – | – | – | – | –
4 | O=C1c2c(nc3ccccc3c2OCc2c(F)cccc2F)-c2cccn21 [Compound 615b, 9-((2,6-difluorobenzyl)oxy)-10H-pyrrolizino[1,2-b]quinolin-10-one] | 10 to 50 | 10 to 50 | 0.05 to 5 | – | 0.05 to 5 | 0.05 to 5 | 0.05 to 5 | 0.05 to 5 | 0.05 to 5 | 0.05 to 5 | – | – | – | – | – | –
5 | O=C1c2nc3ccccc3c(OCCCN3CCOCC3)c2-c2cccn21 [Compound 787b, 11-(3-morpholinopropoxy)-5H-pyrrolizino[2,1-b]quinolin-5-one] | 10 to 50 | 0.1 to 1 | – | 0.05 to 5 | – | – | – | – | – | – | 0.05 to 5 | 0.05 to 5 | 0.05 to 5 | 0.05 to 5 | 0.05 to 5 | 0.05 to 5
6 | O=C1c2c(nc3cc(C(F)(F)F)ccc3c2O)-c2cccn21 [Compound 536b, 9-hydroxy-6-(trifluoromethyl)-10H-pyrrolizino[1,2-b]quinolin-10-one] | 1 to 10 | 1 to 10 | 0.05 to 5 | – | 0.05 to 5 | 0.05 to 5 | 0.05 to 5 | 0.05 to 5 | 0.05 to 5 | 0.05 to 5 | – | – | – | – | – | –
7 | O=C1c2c(n(Cc3cccc(F)c3)c3ccccc3c2=O)-c2cccn21 [Compound 595a, 4-(3-Fluorobenzyl)-9H-pyrrolizino[1,2-b]quinoline-9,10(4H)-dione] | 0.1 to 1 | 1 to 10 | 0.05 to 5 | – | 0.05 to 5 | 0.05 to 5 | < 0.05 | 0.05 to 5 | 0.05 to 5 | 0.05 to 5 | – | – | – | – | – | –
8 | N#Cc1cccc2[nH]c3c(c(=O)c12)C(=O)n1cccc1-3 [Compound 476a, 9,10-Dioxo-4,10-dihydro-9H-pyrrolizino[1,2-b]quinoline-8-carbonitrile] | 1 to 10 | 10 to 50 | 0.05 to 5 | – | 0.05 to 5 | 0.05 to 5 | 0.05 to 5 | < 0.05 | 0.05 to 5 | 0.05 to 5 | – | – | – | – | – | –

Continued, in another order:

Row | IC50 [1] [µM] | IC50 (NF-κB) [µM] | IC50 [4, 10] [mM] | IC50 ([4]; HT-1080 cells, 48 h, CCK-8) [mM] | Compound | IC50 [2, 8] [mM] | IC50 [3, 9] [mM] | IC50 [5, 11] [mM] | IC50 (BHK-21 cells; [12]) [mM] | IC50 [6, 13] [mM] | IC50 [7, 14] [mM] | IC50 ([2]; RAT-iCell-C002 cells, CCK-8) [mM] | IC50 ([3]; LX-2, 48 h, LX-2 cells, CCK-8) [mM] | IC50 [5, 15] [mM] | IC50 (BHK-21 cells; 48 h, CCK-8) [mM] | IC50 ([6]; HFL1 cells, 48 h, CCK-8) [mM] | IC50 [7, 16] [mM]
9 | 1 to 10 | 1 to 10 | 0.05 to 5 | – | O=C(Oc1c2c(nc3ccccc13)-c1cccn1C2=O)c1ccco1 [Compound 95b, 10-oxo-10H-pyrrolizino[1,2-b]quinolin-9-ylfuran-2-carboxylate] | 0.05 to 5 | < 0.05 | 0.05 to 5 | 0.05 to 5 | 0.05 to 5 | 0.05 to 5 | – | – | – | – | – | –
10 | 1 to 10 | 1 to 10 | 0.05 to 5 | – | O=C1c2c(n(Cc3ccc(OC(F)(F)F)cc3)c3ccccc3c2=O)-c2cccn21 [Compound 592a, 4-(4-(Trifluoromethoxy)benzyl)-9H-pyrrolizino[1,2-b]quinoline-9,10(4H)-dione] | 0.05 to 5 | 0.05 to 5 | 0.05 to 5 | 0.05 to 5 | 0.05 to 5 | 0.05 to 5 | – | – | – | – | – | –
11 | 1 to 10 | 1 to 10 | – | 0.05 to 5 | O=C1c2c(n(C3CC3)c3ccccc3c2=O)-c2cccn21 [Compound 673a, 4-Cyclopropyl-9H-pyrrolizino[1,2-b]quinoline-9,10(4H)-dione] | – | – | – | – | – | – | 0.05 to 5 | 0.05 to 5 | 0.05 to 5 | < 0.05 | 0.05 to 5 | 0.05 to 5
12 | 1 to 10 | 1 to 10 | 0.05 to 5 | – | O=C1c2c(nc3ccccc3c2OCc2cccc([N+](=O)[O-])c2)-c2cccn21 [Compound 583b, 9-((3-nitrobenzyl)oxy)-10H-pyrrolizino[1,2-b]quinolin-10-one] | 0.05 to 5 | 0.05 to 5 | 0.05 to 5 | 0.05 to 5 | 0.05 to 5 | 0.05 to 5 | – | – | – | – | – | –
13 | 1 to 10 | 1 to 10 | 0.05 to 5 | – | O=C1c2c(nc3ccccc3c2OCc2ccccc2Cl)-c2cccn21 [Compound 600b, 9-((2-chlorobenzyl)oxy)-10H-pyrrolizino[1,2-b]quinolin-10-one] | 0.05 to 5 | 0.05 to 5 | 0.05 to 5 | 0.05 to 5 | 0.05 to 5 | 0.05 to 5 | – | – | – | – | – | –
14 | 1 to 10 | 1 to 10 | < 0.05 | – | C=CCn1c2c(c(=O)c3ccccc31)C(=O)n1cccc1-2 [Compound 6a, 4-Allyl-9H-pyrrolizino[1,2-b]quinoline-9,10(4H)-dione] | 0.05 to 5 | 0.05 to 5 | 0.05 to 5 | 0.05 to 5 | 0.05 to 5 | 0.05 to 5 | – | – | – | – | – | –
15 | 1 to 10 | 1 to 10 | – | 0.05 to 5 | Cc1ccn2c1-c1c([nH]c3ccccc3c1=O)C2=O [Compound 797a, 1-Methyl-5H-pyrrolizino[2,1-b]quinoline-5,11(6H)-dione] | – | – | – | – | – | – | 0.05 to 5 | 0.05 to 5 | 0.05 to 5 | 0.05 to 5 | 0.05 to 5 | 0.05 to 5
16 | 1 to 10 | 10 to 50 | 0.05 to 5 | – | O=C1c2c(nc3cccc(Cl)c3c2OCc2ccc(Cl)cc2)-c2cccn21 [Compound 477b, 8-chloro-9-((4-chlorobenzyl)oxy)-10H-pyrrolizino[1,2-b]quinolin-10-one] | 0.05 to 5 | 0.05 to 5 | 0.05 to 5 | 0.05 to 5 | 0.05 to 5 | 0.05 to 5 | – | – | – | – | – | –
17 | 1 to 10 | 1 to 10 | 0.05 to 5 | – | N#Cc1cccc(COc2c3c(nc4ccccc24)-c2cccn2C3=O)c1 [Compound 597b, 3-(((10-oxo-10H-pyrrolizino[1,2-b]quinolin-9-yl)oxy)methyl)benzonitrile] | 0.05 to 5 | 0.05 to 5 | 0.05 to 5 | 0.05 to 5 | 0.05 to 5 | 0.05 to 5 | – | – | – | – | – | –
18 | 1 to 10 | 0.1 to 1 | 0.05 to 5 | – | O=C1c2c(n(Cc3ccccc3F)c3ccccc3c2=O)-c2cccn21 [Compound 599a, 4-(2-Fluorobenzyl)-9H-pyrrolizino[1,2-b]quinoline-9,10(4H)-dione] | 0.05 to 5 | 0.05 to 5 | 0.05 to 5 | 0.05 to 5 | 0.05 to 5 | 0.05 to 5 | – | – | – | – | – | –
